2 compounds from PMC12668308, “A Novel Antimalarial Agent that Inhibits Protein Synthesis in Plasmodium falciparum” (Angewandte Chemie (International Ed. in English), 2025) can be followed below.

The test system of test [1] is Dd2b2^pfmdr1 G182S. The format is cell-based, Plasmodium falciparum. To be noted: Dd2b2^pfmdr1 G182S vs Dd2b2^WT. How it is done:
^[a] 72-h [^3H] hypoxanthhine incorporation assay; Data is expressed as mean±s.d. The assay was performed in three independent biological experiments, each in biological duplicates
P. falciparum asexual blood stage parasites were cultured in human red blood cells (RBC, Blutspende SRK, Zurich) at a hematocrit of 5% in RPMI 1640 medium. The RPMI 1640 medium (ThermoFisher Scientific #51800−043) was supplemented with the following: 24 mM NaHCO3 (pH 7.3, Sigma-Aldrich #31437−500G-R), 25 mM Hepes (Sigma-Aldrich #H4034−500G), 0.36 mM hypoxanthine (Sigma-Aldrich # H9377−25G), 100 µg mL^-1 neomycin (Sigma-Aldrich #N6386−100G) and 0.5% Albumax II (Thermo Fisher #11021−045). Additionally, 2 mM choline chloride (279 mg/L, Sigma-Aldrich #C7527−100G) was added to the culture to block the induction of sexual commitment as described. ^[31^] The RPMI 1640 medium and components were dissolved in water (Milli-Q purified), stirred for at least 3 h, and then sterile filtered (0.22 μm pore size) with a bottle top filter (Corning # 431118). Parasite cultures were maintained in an atmosphere of 3% O2, 4% CO2, and 93% N2 in air-tight chambers at 37 °C. The [^3H]-hypoxanthine incorporation assay was used to test compound activity in the specific parasite lines as described.^[32^] Briefly, compounds were dissolved in DMSO (10 mM) and diluted in a hypoxanthine-free culture medium. A limiting dilution was performed over a 64-fold range (6-step twofold dilution) in a 96-well plate in duplicates. For every starting concentration, a limiting dilution was performed over a 64-fold range (6-step twofold dilution) in a 96-well plate in two biological duplicates. Parasites were added at 100 µL to each well containing the compound to obtain a final parasitemia of 0.3% and haematocrit of 1.25%. The plates were incubated for 48 h before 0.25 µCi of [^3H]-hypoxanthine was added per well for an additional 24 h. Parasites were harvested on a glass-fiber filter with a Microbeta FilterMate cell harvester (Perkin Elmer, Waltham, USA) and radioactivity was counted using a MicroBeta2 liquid scintillation counter (Perkin Elmer, Waltham, US). […] The fifty percent inhibitory concentration (IC50) was calculated by using nonlinear, four parameter (variable slope) curve fitting as described ^[33^] after importing into GraphPad Prism (version 8.3.0).

Test [2] concerns Dihydrolipoyl dehydrogenase (W7JVD0). Put plainly: iSPP profiling, P. falciparum lysate. The format is binding, Plasmodium falciparum. To be noted: 100 µM compound 34. How it is done:
(§1) P. falciparum NF54 lysates were extracted as described in ^[26^] . The parasite asynchronous culture was extracted once 3-5% parasitemia was reached. Saponin lysis was done as described in 2.2.10. Once the parasite pellet was obtained, 2.5 volumes of ice-cold lysis buffer (50 mM Tris/HCl pH 7.5 (Avantor), 5% glycerol (Sigma-Aldrich), 150 mM NaCl (Carl Roth), 1.5 mM MgCl2 (Sigma-Aldrich), 1 mM DTT (Carl Roth), 0.8% IGEPAL CA-630 (Sigma-Aldrich), 1X Halt Protease and Phosphatase Inhibitor-Cocktails EDTA-free (Thermo Fisher Scientific)) was added to the parasite pellet. The lysate solution was subjected to three cycles of flash freeze-thaw with liquid nitrogen and ddH2O at RT. The lysates were centrifuged at 20,000 g for 20 minutes at 4 °C. The soluble protein fraction (supernatant) was collected and the protein content was quantified using the BCA assay (Pierce™ BCA Protein Assay Kit, Thermo Fisher Scientific). The lysate was stored at -80 °C until further use.
(§2) The P. falciparum lysate was thawed on ice and diluted to 0.8 mg/mL. The lysate was aliquoted, and each aliquot was incubated with either a vehicle control (DMSO), 34 (dissolved in DMSO), or varying concentrations of 31 (dissolved in DMSO) at 0.01 µM, 0.1 µM, 10 µM, 50 µM, and 100 µM. Subsequently, the samples were incubated at room temperature for 30 minutes using a rotating mixer. After distribution into a 96-well plate, the samples were treated with increasing concentrations of A.E.A. (v/v) ranging from 14% to 28% (14, 16, 18, 20, 22, 24, 26, and 28%). Following a 20-minute incubation at 37°C with shaking at 750 rpm, the samples were centrifuged at 4400 g for 35 minutes to remove precipitated proteins. The soluble fractions were then pooled in equal volumes into a single sample using the Bravo Automated Liquid Handling Platform. The pooled samples were subsequently prepared for LC-MS/MS analysis.
(§3) The raw LFQ-DIA intensity values of biological replicates across all conditions were normalized to the median abundance using Excel. The normalized values were then log2 transformed in Perseus (v2.0.10.0).^[58^] Missing values were imputed from a normal distribution (width 0.3, down shift 1.5), and p-values were obtained using a two-sample t-test over replicates with a permutation-based false discovery rate correction (FDR 0.05). Volcano plots were generated in RStudio using the EnhancedVolcano package (v. 1.20.0), ^[59^] plotting proteins by statistical significance (y-axis: –Log10 p-value) versus the magnitude of change (x-axis: log2 fold change of protein intensities for each compound condition relative to the vehicle control). The heatmap was generated in Perseus (v2.0.10.0). Dose-dependent curves were generated using normalized protein intensity values, expressed as a ratio to the vehicle control. Plots were created in GraphPad Prism (v8.3.0) using a nonlinear regression model.

Test [3] has as its system Pre-mRNA branch site protein p14 (Fragment) (W7JRR7). In words: iSPP profiling, P. falciparum lysate. The format is binding, Plasmodium falciparum. To be noted: 100 µM compound 34. As for the experimental part: as §1, §2, §3
Test [4] concerns Pre-mRNA-splicing factor BUD31 (W7K941). Put plainly: iSPP profiling, P. falciparum lysate. It is filed as binding, Plasmodium falciparum. To be noted: 100 µM compound 34. As for the experimental part: as §1, §2, §3
The subject of test [5] is RRM domain-containing protein (W7KAG3). In words: iSPP profiling, P. falciparum lysate. It is filed as binding, Plasmodium falciparum. To be noted: 100 µM compound 34. How it is done: as §1, §2, §3
Test [6] concerns Ribosome associated membrane protein RAMP4 (W7KMX9). Put plainly: iSPP profiling, P. falciparum lysate. The format is binding, Plasmodium falciparum. To be noted: 100 µM compound 34. As for the experimental part: as §1, §2, §3
Test [7] has as its system Small nuclear ribonucleoprotein Sm D1 (W7K576). In words: iSPP profiling, P. falciparum lysate. It is filed as binding, Plasmodium falciparum. To be noted: 100 µM compound 34. How it is done: as §1, §2, §3
Test [8] concerns Stevor (W7K9U2). Put plainly: iSPP profiling, P. falciparum lysate. To be noted: 100 µM compound 34. The format is binding, Plasmodium falciparum. As for the experimental part: as §1, §2, §3
For test [9], the system named is Sugar phosphate phosphatase (W7K268). In words: iSPP profiling, P. falciparum lysate. It is filed as binding, Plasmodium falciparum. To be noted: 100 µM compound 34. As for the experimental part:
as §1, §2, §3

Test [10] has as its system Uncharacterized protein (W7JZL0). In words: iSPP profiling, P. falciparum lysate. The format is binding, Plasmodium falciparum. To be noted: 100 µM compound 34. As for the experimental part:
as §1, §2, §3

In test [11] the test system is Uncharacterized protein (W7K0G9). In words: iSPP profiling, P. falciparum lysate. It is filed as binding, Plasmodium falciparum. To be noted: 100 µM compound 34. As for the experimental part:
as §1, §2, §3

Test [12] has as its system Uncharacterized protein (W7KDE4). In words: iSPP profiling, P. falciparum lysate. To be noted: 100 µM compound 34. It is filed as binding, Plasmodium falciparum. How it is done: as §1, §2, §3
Test [13] relates to Uncharacterized protein (W7KFE6). In words: iSPP profiling, P. falciparum lysate. The format is binding, Plasmodium falciparum. To be noted: 100 µM compound 34. As for the experimental part:
as §1, §2, §3

For `CN1CCN(Cc2ccc(O)c(NC(=O)c3cccc(Oc4cc(C(F)(F)F)ccn4)c3)c2)CC1` [Compound 31, N-(2-hydroxy-5-((4-methylpiperazin-1-yl)methyl)phenyl)-3-((4-(trifluoromethyl)pyridin-2-yl)oxy)benzamide], the “IC50 fold shift relative to parental clone” value in [1] is listed as 35.7.

For `O=C(Nc1cc(CN2CCOCC2)ccc1F)c1cccc(Oc2cc(C(F)(F)F)ccn2)c1` [Compound 34, N-(2-Fluoro-5-(morpholinomethyl)phenyl)-3-((4-(trifluoromethyl)pyridin-2-yl)oxy)benzamide], the log2FC in test [2] was determined as 0.3119; in [3], 0.3601; in test [4] it was 0.5199; in test [5], 0.4449; in test [6] it was 0.4453; in [7] it was 0.401. Further, the log2FC in [8] is given as 0.3642; in test [9], -0.3813; in test [10], -1.173; in [11], -0.3881; in test [12], 0.5097; in [13], 0.3535.
